Source: patent US20260234136A1, “ISOXAZOLIDINES AS RIPK1 INHIBITORS AND USE THEREOF” (GENZYME CORPORATION, priority 2023, published 2026)
Values after ≈ are worked out from the molar mass of the structure shown.

Tests used:
physchem = conditions: 50 mM phosphate buffer, 25 °C, pH 7.4, aqueous buffer, thermodynamic from solid
U937 cells = assay: Cellular assay in U937 cells to measure the activity of RIPK1-inhibitors on cell death (necroptosis); format: cell-based; conditions: Homo sapiens, U-937, 50 μM zVAD.fmk and 100 ng/ml recombinant human TNFα, overnight (18 to 24 hrs), MTS readout
Experimental: Absorbance of formazan was read at 490 nm. The inhibitory activity of the test compound was quantified in a concentration response curve (CRC) experiment.
Compounds were obtained as 10 mM stock solutions and were diluted 1 to 10 volumes with DMSO to yield a 1 mM solution. From this solution 2 μl were diluted with 998 μl growth medium.
U937 cells were cultured in RPMI1640 Glutamax and 10% heat inactivated FBS. […] 50 μl of compound dilutions, as described in Cellular assay in U937 cells, were added and the cell suspension incubated overnight (18 to 24 hrs) at 37° C., 5% CO2 in a humidified atmosphere (95% rH).
CellTiter 96 Aqueous reagent was mixed (100 μl PMS (phenazine methosulfate) solution/2 ml MTS (3-(4,5-[…])-5-(3-carboxymethoxyphenyl)-2-(4-sulfophenyl)-2H-tetrazolium, inner salt) solution) and 20 μl were added per well. After 4 hrs incubation at 37° C. (5% CO2 95% rH) optical density was measured at 490 nm on a microplate reader (Tecan Infinite M1000).
The % inhibition is expressed as percentage of the maximal inhibition value obtained in the absence of TNFα/zVAD.fmc.

solubility at 16 h (physchem) [µM] | Compound | IC50 (U937 cells) [nM]
> 1180 | O=C1OCCN1c1ccnc(N2CCC(C(=O)N3OCC[C@H]3c3cnccn3)CC2)n1 [Example 2, (S)-3-(2-(4-(3-(pyrazin-2-yl)isoxazolidine-2-carbonyl)piperidin-1-yl)pyrimidin-4-yl)oxazolidin-2-one] | 50
> 1130 | O=C1CCCN1c1nc(N2CCC(C(=O)N3OCC[C@H]3c3cnccn3)CC2)ncc1F [Example 6, 1-[5-fluoro-2-[4-[(3S)-3-pyrazin-2-ylisoxazolidine-2-carbonyl]-1-piperidyl]pyrimidin-4-yl]pyrrolidin-2-one] | 8
328 (≈ 142 µg/mL) | Cc1ccc([C@@H]2CCON2C(=O)C2CCN(c3ncnc(-c4ccnn4C)n3)CC2)cn1 [Example 8] | 3
173 (≈ 74.9 µg/mL) | Cc1cnn(-c2ccnc(N3CCC(C(=O)N4OCC[C@H]4c4ccc(C)nc4)CC3)n2)c1 [Example 9, [1-[4-(4-methylpyrazol-1-yl)pyrimidin-2-yl]-4-piperidyl]-[(3S)-3-(6-methyl-3-pyridyl)isoxazolidin-2-yl]methanone] | 29
> 2780 | O=C(C1CCN(c2nccc(-c3ncco3)n2)CC1)N1OCC[C@H]1c1cnccn1 [Example 11, [1-(4-oxazol-2-ylpyrimidin-2-yl)-4-piperidyl]-[(3S)-3-pyrazin-2-ylisoxazolidin-2-yl]methanone] | 10
> 1180 | O=C(C1CCN(c2ncc(F)c(-c3ncco3)n2)CC1)N1OCC[C@H]1c1cnccn1 [Example 12, [1-(5-fluoro-4-oxazol-2-yl-pyrimidin-2-yl)-4-piperidyl]-[(3S)-3-pyrazin-2-ylisoxazolidin-2-yl]methanone] | 1
> 1180 | O=C(C1CCN(c2ncnc(-c3nccs3)n2)CC1)N1OCC[C@H]1c1cnccn1 [Example 14, [(3S)-3-pyrazin-2-ylisoxazolidin-2-yl]-[1-(4-thiazol-2-yl-1,3,5-triazin-2-yl)-4-piperidyl]methanone] | 9
169 (≈ 73.2 µg/mL) | Cc1cnn(-c2nccc(N3CCC(C(=O)N4OCC[C@H]4c4ccc(C)nc4)CC3)n2)c1 [Example 16, [1-[2-(4-methylpyrazol-1-yl)pyrimidin-4-yl]-4-piperidyl]-[(3S)-3-(6-methyl-3-pyridyl)isoxazolidin-2-yl]methanone] | 53
7.1 (≈ 3.21 µg/mL) | Cc1ccc([C@@H]2CCON2C(=O)C2CCN(c3ncc(F)c(-c4ccnn4C)n3)CC2)cn1 [Example 19, [1-[5-fluoro-4-(2-methylpyrazol-3-yl)pyrimidin-2-yl]-4-piperidyl]-[(3S)-3-(6-methyl-3-pyridyl)isoxazolidin-2-yl]methanone] | 
21.4 (≈ 9.66 µg/mL) | Cc1ncc([C@@H]2CCON2C(=O)C2CCN(c3nccc(-n4ccnc4C)n3)CC2)cc1F [Example 20, [(3S)-3-(5-fluoro-6-methyl-3-pyridyl)isoxazolidin-2-yl]-[1-[4-(2-methylimidazol-1-yl)pyrimidin-2-yl]-4-piperidyl]methanone] | 1
> 1110 | Cc1ncc([C@@H]2CCON2C(=O)C2CCN(c3cc(-n4ccnc4C)ncn3)CC2)cc1F [Example 21, [(3S)-3-(5-fluoro-6-methyl-3-pyridyl)isoxazolidin-2-yl]-[1-[6-(2-methylimidazol-1-yl)pyrimidin-4-yl]-4-piperidyl]methanone] | 73
 | Cc1ncc([C@@H]2CCON2C(=O)C2CCN(c3ncc(F)c(N4CCC5(CC5)C4=O)n3)CC2)cc1F [Example 68, 5-[5-fluoro-2-[4-[(3S)-3-(5-fluoro-6-methylpyridin-3-yl)-1,2-oxazolidine-2-carbonyl]piperidin-1-yl]pyrimidin-4-yl]-5-azaspiro[2.4]heptan-4-one] | 10000
 | Cc1ccc([C@@H]2CCON2C(=O)C2CCN(c3nccc(N4CCC5(CC5)C4=O)n3)CC2)cn1 [Example 70, 5-[2-[4-[(3S)-3-(6-methylpyridin-3-yl)-1,2-oxazolidine-2-carbonyl]piperidin-1-yl]pyrimidin-4-yl]-5-azaspiro[2.4]heptan-4-one] | 107
 | O=C(C1CCN(c2nccc(N3CCCC4(CC4)C3=O)n2)CC1)N1OCC[C@H]1c1cncc(F)c1 [Example 72, 5-[2-[4-[(3S)-3-(5-fluoropyridin-3-yl)-1,2-oxazolidine-2-carbonyl]piperidin-1-yl]pyrimidin-4-yl]-5-azaspiro[2.5]octan-4-one] | 58
 | Cc1ccc([C@@H]2CCON2C(=O)C2CCN(c3nccc(N4CCC(F)(F)C4=O)n3)CC2)cn1 [Example 73, 3,3-difluoro-1-[2-[4-[(3S)-3-(6-methylpyridin-3-yl)-1,2-oxazolidine-2-carbonyl]piperidin-1-yl]pyrimidin-4-yl]pyrrolidin-2-one] | 551
 | Cc1cncc([C@@H]2CCON2C(=O)C2CCN(c3nccc(N4CCC(F)(F)C4=O)n3)CC2)c1 [Example 74, 3,3-difluoro-1-[2-[4-[(3S)-3-(5-methylpyridin-3-yl)-1,2-oxazolidine-2-carbonyl]piperidin-1-yl]pyrimidin-4-yl]pyrrolidin-2-one] | 175
 | Cc1cncc([C@@H]2CCON2C(=O)C2CCN(c3nccc(N4CCCC(F)(F)C4=O)n3)CC2)c1 [Example 76, 3,3-difluoro-1-[2-[4-[(3S)-3-(5-methylpyridin-3-yl)-1,2-oxazolidine-2-carbonyl]piperidin-1-yl]pyrimidin-4-yl]piperidin-2-one] | 485
 | Cc1ccc([C@@H]2CCON2C(=O)[C@@H]2CCN(c3ccnc(N4CCCC4=O)n3)CC23CC3)cn1 [Example 85, 1-[4-[(8R)-8-[(3S)-3-(6-methylpyridin-3-yl)-1,2-oxazolidine-2-carbonyl]-5-azaspiro[2.5]octan-5-yl]pyrimidin-2-yl]pyrrolidin-2-one] | 517
 | O=C1CCCN1c1cc(N2CCC(C(=O)N3OCC[C@H]3c3cncc(F)c3)CC2)ncn1 [Example 86, 1-[6-[4-[(3S)-3-(5-fluoropyridin-3-yl)-1,2-oxazolidine-2-carbonyl]piperidin-1-yl]pyrimidin-4-yl]pyrrolidin-2-one] | 780
 | Cc1ccc([C@@H]2CCON2C(=O)C2CCN(c3ccnc(N4CCCC4=O)n3)CC2)cn1 [Example 87, 1-[4-[4-[(3S)-3-(6-methylpyridin-3-yl)-1,2-oxazolidine-2-carbonyl]piperidin-1-yl]pyrimidin-2-yl]pyrrolidin-2-one] | > 10000
 | Cc1ncc([C@@H]2CCON2C(=O)C2CCN(c3nccc(N4C(=O)CCC4(C)C)n3)CC2)cc1F [Example 89, 1-[2-[4-[(3S)-3-(5-fluoro-6-methylpyridin-3-yl)-1,2-oxazolidine-2-carbonyl]piperidin-1-yl]pyrimidin-4-yl]-5,5-dimethylpyrrolidin-2-one] | 320
 | Cc1ccc([C@@H]2CCON2C(=O)C2CCN(c3ccnc(N4CCCC5(CC5)C4=O)n3)CC2)cn1 [Example 90, 5-[4-[4-[(3S)-3-(6-methylpyridin-3-yl)-1,2-oxazolidine-2-carbonyl]piperidin-1-yl]pyrimidin-2-yl]-5-azaspiro[2.5]octan-4-one] | 4430
 | Cc1nc([C@@H]2CCON2C(=O)C2CCN(c3nccc(N4CCCC4=O)n3)CC2)cs1 [Example 92, 1-[2-[4-[(3S)-3-(2-methyl-1,3-thiazol-4-yl)-1,2-oxazolidine-2-carbonyl]piperidin-1-yl]pyrimidin-4-yl]pyrrolidin-2-one] | 18
 | Cc1ncc([C@@H]2CCON2C(=O)C2CCN(c3nccc(C4COC4)n3)CC2)cc1F [Example 101, [(3S)-3-(5-fluoro-6-methylpyridin-3-yl)-1,2-oxazolidin-2-yl]-[1-[4-(oxetan-3-yl)pyrimidin-2-yl]piperidin-4-yl]methanone] | 2600

Compound | solubility at 16 h (physchem) [µM] | IC50 (U937 cells) [nM]
Cc1ccc([C@@H]2CCON2C(=O)C2CCN(c3cc(-n4ccnc4C)ncn3)CC23CC3)cn1 (mixture of isomers) [Example 33, [5-[6-(2-methylimidazol-1-yl)pyrimidin-4-yl]-5-azaspiro[2.5]octan-8-yl]-[(3S)-3-(6-methylpyridin-3-yl)-1,2-oxazolidin-2-yl]methanone] | > 1090 | 16.4
Cc1ccc([C@@H]2CCON2C(=O)C2CCN(c3cc(-c4ccnn4C)ncn3)CC23CC3)cn1 (mixture of isomers) [Example 34, [5-[6-(2-methylpyrazol-3-yl)pyrimidin-4-yl]-5-azaspiro[2.5]octan-8-yl]-[(3S)-3-(6-methylpyridin-3-yl)-1,2-oxazolidin-2-yl]methanone] | > 1090 | 52.9
Cc1ccc([C@@H]2CCON2C(=O)[C@@H]2CCN(c3cc(-n4ccnc4C)ncn3)CC23CC3)cn1 (single isomer, unassigned) [Example 78] | > 1090 | 32
Cc1ccc([C@@H]2CCON2C(=O)[C@H]2CCN(c3cc(-n4ccnc4C)ncn3)CC23CC3)cn1 (single isomer, unassigned) [Example 79] | > 1090 | 
Cc1ccc([C@@H]2CCON2C(=O)[C@H]2CCN(c3cc(-c4ccnn4C)ncn3)CC23CC3)cn1 [Example 80, [5-[6-(2-methylpyrazol-3-yl)pyrimidin-4-yl]-5-azaspiro[2.5]octan-8-yl]-[(3S)-3-(6-methylpyridin-3-yl)-1,2-oxazolidin-2-yl]methanone] | > 1090 | 
